In US9914730B2, “Azaquinazoline inhibitors of Atypical protein Kinase C” (Ignyta, Inc., priority 2012, dated 2018):

Biological target: T1, full-length human PKCι (Homo sapiens, UniProt P41743)
T1 construct: Recombinant, full-length human PKCι expressed in Sf21 insect cells is also commercially available; purchased; host or cells: Sf21 insect cells
T1 sequence (P41743 1-596): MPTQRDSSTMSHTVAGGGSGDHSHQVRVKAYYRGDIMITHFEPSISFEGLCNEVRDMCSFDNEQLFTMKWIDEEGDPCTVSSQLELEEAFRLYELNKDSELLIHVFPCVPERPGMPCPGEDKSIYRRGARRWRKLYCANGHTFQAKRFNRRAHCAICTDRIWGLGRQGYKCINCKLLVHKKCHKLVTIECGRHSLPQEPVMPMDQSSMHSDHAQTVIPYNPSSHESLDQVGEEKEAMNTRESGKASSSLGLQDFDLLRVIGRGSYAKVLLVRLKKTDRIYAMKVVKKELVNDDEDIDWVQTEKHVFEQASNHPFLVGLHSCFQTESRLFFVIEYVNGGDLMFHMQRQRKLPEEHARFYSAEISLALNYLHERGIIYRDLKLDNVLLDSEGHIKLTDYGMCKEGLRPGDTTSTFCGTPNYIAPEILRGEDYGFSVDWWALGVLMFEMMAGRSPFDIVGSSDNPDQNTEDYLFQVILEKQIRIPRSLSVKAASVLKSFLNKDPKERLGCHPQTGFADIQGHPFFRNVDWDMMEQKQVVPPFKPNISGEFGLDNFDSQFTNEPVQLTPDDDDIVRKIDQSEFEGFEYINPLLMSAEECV
Assay: PKCι IC50 IMAP assay, full-length PKCι at 150 μM ATP
Format: biochemical
Settings: read-out: IC50 in IMAP assay against full length PKCi at 150 μM ATP
Summary of the method: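 Dose-response IC50 values come from IMAP fluorescence polarisation after 60 min room-temperature turnover of 100 nM FAM peptide by ~15 pM insect-cell-expressed full-length PKCι at 150 μM ATP (5× KM^APP), normalised to no-compound and no-enzyme controls.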

Compound | IC50
CS(=O)(=O)CCN1CCN(c2nc(-c3ccnc(Nc4ccccc4)c3)nc3cncc(C4CC4)c23)CC1 [Example 663, (4-{5-Cyclopropyl-4-[4-(2-methanesulfonyl-ethyl)-piperazin-1-yl]-pyrido[3,4-d]pyrimidin-2-yl}-pyridin-2-yl)-phenyl-amine] | 0.1 to 1 µM
COc1cncc2nc(-c3ccnc(Nc4ccccc4)c3)nc(NC[C@H]3CCCN3)c12 [Example 431, [5-Methoxy-2-(2-phenylamino-pyridin-4-yl)-pyrido[3,4-d]pyrimidin-4-yl]-(R)-1-pyrrolidin-2-ylmethyl-amine] | 0.1 to 1 µM
Cc1ccc(C(F)(F)F)cc1Nc1cc(-c2nc(N3CCNCC3)c3c(C4CC4)cncc3n2)ccn1 [Example 554, [4-(5-Cyclopropyl-4-piperazin-1-yl-pyrido[3,4-d]pyrimidin-2-yl)-pyridin-2-yl]-(2-methyl-5-trifluoromethyl-phenyl)-amine] | 0.1 to 1 µM
FC(F)(F)c1cc2c(-c3nc(N4CCNCC4)c4c(Br)cncc4n3)ccnc2[nH]1 [Example 2117, 5-Bromo-4-piperazin-1-yl-2-(2-trifluoromethyl-1H-pyrrolo[2,3-b]pyridin-4-yl)-pyrido[3,4-d]pyrimidine] | < 0.1 µM
CCCc1ccc(F)c(Nc2cc(-c3nc(N4CCNCC4)c4c(C5CC5)cncc4n3)ccn2)c1 [Example 640, [4-(5-Cyclopropyl-4-piperazin-1-yl-pyrido[3,4-d]pyrimidin-2-yl)-pyridin-2-yl]-(2-fluoro-5-propyl-phenyl)-amine] | < 0.1 µM
CN(c1nc(-c2ccnc(Nc3c(F)cccc3F)c2)nc2cncc(C3CC3)c12)C1CCN(C2CCC2)CC1 [Example 2110, (1-Cyclobutyl-piperidin-4-yl)-{5-cyclopropyl-2-[2-(2,6-difluoro-phenylamino)-pyridin-4-yl]-pyrido[3,4-d]pyrimidin-4-yl}-methyl-amine] | 0.1 to 1 µM
CN(C)CCNc1nc(-c2ccnc(Nc3c(F)cccc3F)c2)nc2cncc(C3CC3)c12 [Example 776, N-{5-Cyclopropyl-2-[2-(2,6-difluoro-phenylamino)-pyridin-4-yl]-pyrido[3,4-d]pyrimidin-4-yl}-N′,N′-dimethyl-ethane-1,2-diamine] | 0.1 to 1 µM
FC(F)(F)Cn1ccc(Nc2cc(-c3nc(N4CCNCC4)c4c(C5CC5)cncc4n3)ccn2)n1 [Example 2016, [4-(5-Cyclopropyl-4-piperazin-1-yl-pyrido[3,4-d]pyrimidin-2-yl)-pyridin-2-yl]-[1-(2,2,2-trifluoro-ethyl)-1H-pyrazol-3-yl]-amine] | < 0.1 µM
CC1(C)CNCCC1Nc1nc(-c2ccnc(Nc3nc(F)c(F)cc3F)c2)nc2cncc(C3CC3)c12 (centres unmarked) [Example 2176, {5-Cyclopropyl-2-[2-(3,5,6-trifluoro-pyridin-2-ylamino)-pyridin-4-yl]-pyrido[3,4-d]pyrimidin-4-yl}-(3,3-dimethyl-piperidin-4-yl)-amine] | < 0.1 µM
COc1cncc2nc(-c3ccncc3)nc(N3CCN(C)[C@@H](Cc4ccccc4)C3)c12 [Example 81, (2S)-2-benzyl-4-[5-methoxy-2-(pyridin-4-yl)pyrido[3,4-d]pyrimidin-4-yl]-1-methylpiperazine; formic acid] | 0.1 to 1 µM
CC(C)NC(=O)C1CCN(c2nc(-c3ccnc(NC4CCCC4)c3)nc3cncc(C4CC4)c23)CC1 [Example 679, 1-[2-(2-Cyclopentylamino-pyridin-4-yl)-5-cyclopropyl-pyrido[3,4-d]pyrimidin-4-yl]-piperidine-4-carboxylicacid isopropylamide] | 1 to 10 µM
Fc1cccc(Cl)c1Nc1cc(-c2nc(N3CCNCC3)c3c(C4CC4)cncc3n2)ccn1 [Example 616, (2-Chloro-6-fluoro-phenyl)-[4-(5-cyclopropyl-4-piperazin-1-yl-pyrido[3,4-d]pyrimidin-2-yl)-pyridin-2-yl]-amine] | < 0.1 µM
CCOc1ccc(F)c(Nc2cc(-c3nc(N4CCNCC4)c4c(C5CC5)cncc4n3)ccn2)c1F [Example 567, [4-(5-Cyclopropyl-4-piperazin-1-yl-pyrido[3,4-d]pyrimidin-2-yl)-pyridin-2-yl]-(3-ethoxy-2,6-difluoro-phenyl)-amine] | < 0.1 µM
N[C@H](CNc1nc(-c2ccncc2)nc2c(-c3ccco3)nccc12)Cc1ccccc1 [Example 115, N-[(2S)-2-amino-3-phenylpropyl]-8-(furan-2-yl)-2-(pyridin-4-yl)pyrido[3,4-d]pyrimidin-4-amine] | < 0.1 µM
c1cc(-c2nc(N3CCNCC3)c3c(C4CC4)cncc3n2)cc(NC2CCCCC2)n1 [Example 282, Cyclohexyl-[4-(5-cyclopropyl-4-piperazin-1-yl-pyrido[3,4-d]pyrimidin-2-yl)-pyridin-2-yl]-amine] | < 0.1 µM

Continued, values first:

IC50 | Compound
< 0.1 µM | CC(C)n1ccc(Nc2cc(-c3nc(N4CCNCC4)c4c(C5CC5)cncc4n3)ccn2)n1 [Example 779, [4-(5-Cyclopropyl-4-piperazin-1-yl-pyrido[3,4-d]pyrimidin-2-yl)-pyridin-2-yl]-(1-isopropyl-1H-pyrazol-3-yl)-amine]
< 0.1 µM | CC1CN(c2nc(-c3ccnc(Nc4c(F)cccc4F)c3)nc3cncc(C4CC4)c23)CC(C)N1 (centres unmarked) [Example 787, {4-[5-Cyclopropyl-4-(3,5-dimethyl-piperazin-1-yl)-pyrido[3,4-d]pyrimidin-2-yl]-pyridin-2-yl}-(2,6-difluoro-phenyl)-amine]
< 0.1 µM | Nc1ccc(CC(=O)Nc2cc(-c3nc(N[C@@H]4CCNC4)c4ccncc4n3)ccn2)cc1 [Example 314, 2-(4-Amino-phenyl)-N-{4-[4-((R)-pyrrolidin-3-ylamino)-pyrido[3,4-d]pyrimidin-2-yl]-pyridin-2-yl}-acetamide]
< 0.1 µM | Fc1ccc(Cl)nc1Nc1cc(-c2nc(N3CCNCC3)c3c(C4CC4)cncc3n2)ccn1 [Example 801, (6-Chloro-3-fluoro-pyridin-2-yl)-[4-(5-cyclopropyl-4-piperazin-1-yl-pyrido[3,4-d]pyrimidin-2-yl)-pyridin-2-yl]-amine]
< 0.1 µM | Fc1cnc2[nH]ccc2c1-c1nc(N2CCNCC2)c2c(C3CC3)cncc2n1 [Example 1226, 5-Cyclopropyl-2-(5-fluoro-1H-pyrrolo[2,3-b]pyridin-4-yl)-4-piperazin-1-yl-pyrido[3,4-d]pyrimidine]
0.1 to 1 µM | COc1cncc2nc(-c3ccnc(NC(=O)Cc4cccc(C#N)c4)c3)nc(N3CCC(O)CC3)c12 [Example 403, 2-(3-Cyano-phenyl)-N-{4-[4-(4-hydroxy-piperidin-1-yl)-5-methoxy-pyrido[3,4-d]pyrimidin-2-yl]-pyridin-2-yl}-acetamide]
0.1 to 1 µM | COc1cncc2nc(-c3ccnc(Nc4ccccc4)c3)nc(NC[C@@H]3CCCN3)c12 [Example 430, [5-Methoxy-2-(2-phenylamino-pyridin-4-yl)-pyrido[3,4-d]pyrimidin-4-yl]-(S)-1-pyrrolidin-2-ylmethyl-amine]
< 0.1 µM | Fc1cc(C2CC2)ccc1Nc1cc(-c2nc(N3CCNCC3)c3c(C4CC4)cncc3n2)ccn1 [Example 641, (4-Cyclopropyl-2-fluoro-phenyl)-[4-(5-cyclopropyl-4-piperazin-1-yl-pyrido[3,4-d]pyrimidin-2-yl)-pyridin-2-yl]-amine]
10 to 40 µM | COc1cncc2nc(-c3ccnc(NC(=O)Cc4cccc(N)c4)c3)nc(N[C@@H]3CCNC3)c12 [Example 325, 2-(3-Amino-phenyl)-N-{4-[5-methoxy-4-((R)-pyrrolidin-3-ylamino)-pyrido[3,4-d]pyrimidin-2-yl]-pyridin-2-yl}-acetamide]
0.1 to 1 µM | Fc1cccc(F)c1Nc1cc(-c2nc(N3CCNC(CC(F)(F)F)C3)c3c(C4CC4)cncc3n2)ccn1 (centres unmarked) [Example 642, (4-{5-Cyclopropyl-4-[3-(2,2,2-trifluoro-ethyl)-piperazin-1-yl]-pyrido[3,4-d]pyrimidin-2-yl}-pyridin-2-yl)-(2,6-difluoro-phenyl)-amine]
< 0.1 µM | C[C@@H]1CN(c2nc(-c3ccnc(Nc4nc(F)c(F)cc4F)c3)nc3cncc(C4CC4)c23)C[C@H](C)N1 [Example 828, {4-[5-Cyclopropyl-4-((3R,5S)-3,5-dimethyl-piperazin-1-yl)-pyrido[3,4-d]pyrimidin-2-yl]-pyridin-2-yl}-(3,5,6-trifluoro-pyridin-2-yl)-amine]
< 0.1 µM | c1ccc(-c2ccc(Nc3cc(-c4nc(N[C@@H]5CCNC5)c5ccncc5n4)ccn3)nc2)cc1 [Example 318, {2-[2-(5-Phenyl-pyridin-2-ylamino)-pyridin-4-yl]-pyrido[3,4-d]pyrimidin-4-yl}-(R)-pyrrolidin-3-yl-amine]
< 0.1 µM | c1ccc(Nc2cc(-c3nc(N4CCNCC4)c4c(C5CC5)cncc4n3)ccn2)nc1 [Example 750, [4-(5-Cyclopropyl-4-piperazin-1-yl-pyrido[3,4-d]pyrimidin-2-yl)-pyridin-2-yl]-pyridin-2-yl-amine]
< 0.1 µM | FC(F)(F)CN1CCC(Nc2cc(-c3nc(N4CCNCC4)c4c(C5CC5)cncc4n3)ccn2)CC1 [Example 814, [4-(5-Cyclopropyl-4-piperazin-1-yl-pyrido[3,4-d]pyrimidin-2-yl)-pyridin-2-yl]-[1-(2,2,2-trifluoro-ethyl)-piperidin-4-yl]-amine]
